Test results taken from patent US11884750B2, “Cationic cell penetrating peptides and the use thereof” (CELLTROY CO., LTD., priority 2021, dated 2024).

How the values were obtained:
[1] = test system: SH-SY5Y cells; assay: Cell penetration efficiency in human neuroblastoma cells, 4 μM, flow cytometry; format: cell-based; conditions: one hour; for cell permeability compared with TAT: 4 μM FITC-conjugated CPP, flow cytometry; for Score / Score/TAT: 4 μM FITC-conjugated peptide; for Score: intracellular fluorescence by flow cytometry; for Score/TAT: ratio to FITC-conjugated TAT
Experimental: The cell penetration efficiency of the cationic CPPs selected in Example 1 was evaluated in neuroblastoma. In further detail, SH-SYSY cells, which is a human neuroblastoma cell line, were seeded in 24-well plates to have a cell density of 1×10^7 cells/well, and cultured in 10% FBS-added DMEM under conditions of 37° C. and 5% CO2 for 24 hours. In addition, the cells were treated with 4 μM each of FITC-conjugated CPPs (C12, C14, C16, C31, C52, and C67), or FITC-conjugated TAT, and incubated for one hour. After the termination of the incubation, the cells were transferred to a sterile tube using 0.25% trypsin and centrifuged to remove the medium. Afterward, the cells were washed with 500 μL of D-PBS twice to completely remove the medium, and finally, resuspended in 400 μL of D-PBS and intracellular fluorescence was measured by flow cytometry (FACSCanto II).
(§1) To evaluate the cell penetration efficiency of the additionally selected cationic CPPs, an experiment was conducted using human epidermal cells or human neuroblastoma cells. In further detail, HaCAT cells, which is a human epidermal cell line, or SH-SYSY cells, which is a human neuroblastoma cell line, were seeded in 24-well plates to have a cell density of 1×10^7 cells/well and cultured in 10% FBS-added DMEM under conditions of 37° C. and 5% CO2 for 24 hours. In addition, the cells were treated with 4 μM each of FITC-conjugated peptides and FITC-conjugated TAT for one hour. After the completion of the culture, the cells were transferred to a sterile tube using 0.25% trypsin and centrifuged to remove the medium. Afterward, the cells were washed with 500 μL of D-PBS twice to completely remove the medium, and finally, resuspended in 400 μL of D-PBS and intracellular fluorescence was measured by flow cytometry (FACSCanto II).
(§2) Subsequently, to confirm whether the CPPs according to the present invention show excellent cell permeability into different types of cells/tissues, various tissue-derived cells were treated with biologically active molecule-conjugated CPPs to compare its delivery capacity with TAT. As in the previous examples, each cell was aliquoted in a plate at an appropriate density, and cultured in a 10% FBS-added medium under a condition of 37° C. and 5% CO2 for 24 hours. Subsequently, the cells were treated with 4 μM each of FITC-conjugated CPP or FITC-conjugated TAT and incubated for one hour. After the completion of the incubation, the cells were transferred to a sterile tube using 0.25% trypsin and centrifuged to remove the medium. Afterward, the cells were washed with 500 μL of D-PBS twice to completely remove the medium, and finally, resuspended in 400 μL of D-PBS and intracellular fluorescence was measured by flow cytometry (FACSCanto II).

[2] = test system: HeLa cell line; assay: Cell penetration efficiency using cervical cancer cells; format: cell-based; conditions: 4 μM FITC-conjugated CPP, one hour
Experimental: as §2

[3] = test system: A-427 cell line; assay: Cell penetration efficiency using lung cells; format: cell-based; conditions: A-427 lung cells, 4 μM FITC-conjugated CPP, one hour
Experimental: as §2

[4] = test system: HT1080 cell line; assay: Cell penetration efficiency using connective tissue (fibrosarcoma) cells; format: cell-based; conditions: 4 μM FITC-conjugated CPP, one hour
Experimental: as §2

[5] = test system: HaCAT cells; assay: Cell penetration efficiency in human epidermal (skin) cells, 4 μM, flow cytometry; format: cell-based; conditions: 4 μM FITC-conjugated CPP, one hour
Experimental: The cell penetration efficiency of the cationic CPPs selected in Example 1 was evaluated using human epidermal cells. In further detail, HaCAT cells, which is a human epidermal cell line, were seeded in 24-well plates to have a cell density of 1×10^7 cells/well, and cultured in 10% FBS-added DMEM under conditions of 37° C. and 5% CO2 for 24 hours. Subsequently, the cells were treated 4 μM each of the FITC-conjugated CPP or FITC-conjugated TAT, and incubated for one hour. After the termination of the incubation, the cells were transferred to a sterile tube using 0.25% trypsin, and the medium was removed through centrifugation. Afterward, the cells were washed with 500 μL of D-PBS twice to completely remove the medium, and finally, resuspended in 400 μL of D-PBS and intracellular fluorescence was measured by flow cytometry (FACSCanto II).
as §1, §2

[6] = test system: HGB cell line; assay: Cell penetration efficiency in glioblastoma cells; format: cell-based, human; conditions: 4 μM FITC-conjugated CPP, one hour
Experimental: as §2

[7] = test system: HEK293T cell line; assay: Cell penetration efficiency using kidney cells; format: cell-based; conditions: 4 μM FITC-conjugated CPP, one hour
Experimental: as §2

[8] = test system: SNU-46 cell line; assay: Cell penetration efficiency using laryngeal cells; format: cell-based; conditions: SNU-46 laryngeal cells, 4 μM FITC-conjugated CPP, one hour
Experimental: as §2

[9] = test system: HDF cell line; assay: Cell penetration efficiency in skin cells (HDF); format: cell-based; conditions: 4 μM FITC-conjugated CPP, one hour
Experimental: as §2

AIKRRRRRALAKRP [C148]
cell permeability compared with TAT [1]: higher cell permeability
Score [1]: 669
Score/TAT [1]: 1.289
cell permeability compared with TAT [2]: higher cell permeability

ARKNRMARQRRLRP [C45]
cell permeability compared with TAT [3]: higher cell permeability
cell permeability compared with TAT [1]: higher cell permeability
Score [1]: 570
Score/TAT [1]: 1.098
cell permeability compared with TAT [4]: higher cell permeability

ARRLRRRTAKLPAR [C102]
cell permeability compared with TAT [5]: higher cell permeability
cell permeability compared with TAT [1]: higher cell permeability
Score [1]: 720
Score/TAT [1]: 1.387
cell permeability compared with TAT [6]: higher cell permeability

ARVRARLRRRRIEP [C229]
cell permeability compared with TAT [1]: higher cell permeability
Score [1]: 536
Score/TAT [1]: 1.033
cell permeability compared with TAT [7]: higher cell permeability
cell permeability compared with TAT [2]: higher cell permeability

AVKRRRRRALAKRP [C149]
cell permeability compared with TAT [1]: higher cell permeability
Score [1]: 657
Score/TAT [1]: 1.266

KARARRILRRREAP [C191]
cell permeability compared with TAT [1]: higher cell permeability
Score [1]: 592
Score/TAT [1]: 1.141
cell permeability compared with TAT [6]: higher cell permeability
cell permeability compared with TAT [2]: higher cell permeability

KARARRILRRRETP [C190]
cell permeability compared with TAT [1]: higher cell permeability
Score [1]: 579
Score/TAT [1]: 1.116
cell permeability compared with TAT [6]: higher cell permeability

LDRERRRKKAERRP [C312]
Score [1]: 271
Score/TAT [1]: 0.522

LRRVETLRRRKQPR [C319]
Score [1]: 436
Score/TAT [1]: 0.840
cell permeability compared with TAT [7]: higher cell permeability
cell permeability compared with TAT [2]: higher cell permeability

RALKLRRRRRAVLP [C68]
Score [1]: 0
Score/TAT [1]: 0.000

RALRRRAARAARRP [C37]
Score [1]: 0
Score/TAT [1]: 0.000

RALRRRLHRQRKLP [C355]
Score [1]: 497
Score/TAT [1]: 0.958
cell permeability compared with TAT [7]: higher cell permeability
cell permeability compared with TAT [6]: higher cell permeability
cell permeability compared with TAT [2]: higher cell permeability

RERKRAARKKIKKP [C210]
Score [1]: 386
Score/TAT [1]: 0.744

RERKRANRKKLKKP [C310]
Score [1]: 452
Score/TAT [1]: 0.871
cell permeability compared with TAT [7]: higher cell permeability
cell permeability compared with TAT [6]: higher cell permeability

RIRALARRRDRRRP [C354]
cell permeability compared with TAT [3]: higher cell permeability
cell permeability compared with TAT [1]: higher cell permeability
Score [1]: 564
Score/TAT [1]: 1.087
cell permeability compared with TAT [7]: higher cell permeability
cell permeability compared with TAT [6]: higher cell permeability
cell permeability compared with TAT [2]: higher cell permeability
cell permeability compared with TAT [4]: higher cell permeability

RKVLPRKQKRKRVK [C214]
Score [1]: 459
Score/TAT [1]: 0.884
cell permeability compared with TAT [2]: higher cell permeability

RLKEERLKKRRRSP [C264]
Score [1]: 268
Score/TAT [1]: 0.516

RLRAIRRRRRSLDP [C219]
Score [1]: 453
Score/TAT [1]: 0.873
cell permeability compared with TAT [2]: higher cell permeability

RLREKRRSLKRKRP [C262]
cell permeability compared with TAT [3]: higher cell permeability
Score [1]: 345
Score/TAT [1]: 0.665
cell permeability compared with TAT [7]: higher cell permeability
cell permeability compared with TAT [2]: higher cell permeability
cell permeability compared with TAT [4]: higher cell permeability

RPIRKLVRKAREKR [C168]
cell permeability compared with TAT [1]: higher cell permeability
Score [1]: 608
Score/TAT [1]: 1.171
cell permeability compared with TAT [6]: higher cell permeability

RPRRKKQAKRLGKR [C378]
Score [1]: 400
Score/TAT [1]: 0.771
cell permeability compared with TAT [8]: higher cell permeability
cell permeability compared with TAT [2]: higher cell permeability

RPRRKKQVKRIGKR [C379]
Score [1]: 391
Score/TAT [1]: 0.753
cell permeability compared with TAT [2]: higher cell permeability

RRALKRRAMRARRP [C170]
cell permeability compared with TAT [1]: higher cell permeability
Score [1]: 605
Score/TAT [1]: 1.166
cell permeability compared with TAT [6]: higher cell permeability
cell permeability compared with TAT [2]: higher cell permeability
cell permeability compared with TAT [9]: higher cell permeability

RRKVVREKRKRKLP [C203]
cell permeability compared with TAT [1]: higher cell permeability
Score [1]: 544
Score/TAT [1]: 1.048
cell permeability compared with TAT [2]: higher cell permeability

RRREPLRARARVRR [C387]
cell permeability compared with TAT [1]: higher cell permeability
Score [1]: 560
Score/TAT [1]: 1.079
cell permeability compared with TAT [7]: higher cell permeability
cell permeability compared with TAT [2]: higher cell permeability

RRRQRKEKVRNQKP [C57]
Score [1]: 0
Score/TAT [1]: 0.000

RSPARKRVRAQKKR [C360]
Score [1]: 388
Score/TAT [1]: 0.748

RVAALLRRRRRERP [C202]
cell permeability compared with TAT [1]: higher cell permeability
Score [1]: 727
Score/TAT [1]: 1.401
cell permeability compared with TAT [6]: higher cell permeability
cell permeability compared with TAT [2]: higher cell permeability
cell permeability compared with TAT [4]: higher cell permeability

RVRAILRRTRRKEP [C236]
Score [1]: 395
Score/TAT [1]: 0.761
cell permeability compared with TAT [7]: higher cell permeability
cell permeability compared with TAT [2]: higher cell permeability
cell permeability compared with TAT [4]: higher cell permeability

RVRALARRRRQARP [C282]
cell permeability compared with TAT [3]: higher cell permeability
Score [1]: 441
Score/TAT [1]: 0.850
cell permeability compared with TAT [7]: higher cell permeability
cell permeability compared with TAT [2]: higher cell permeability
cell permeability compared with TAT [4]: higher cell permeability

RVRSLARRARRRTP [C401]
cell permeability compared with TAT [3]: higher cell permeability
Score [1]: 425
Score/TAT [1]: 0.819
cell permeability compared with TAT [4]: higher cell permeability

RVRTLLRRRRTERP [C402]
cell permeability compared with TAT [3]: higher cell permeability
Score [1]: 437
Score/TAT [1]: 0.842
cell permeability compared with TAT [4]: higher cell permeability

SVKRRRRRALAKRP [C341]
cell permeability compared with TAT [1]: higher cell permeability
Score [1]: 747
Score/TAT [1]: 1.439
cell permeability compared with TAT [7]: higher cell permeability
cell permeability compared with TAT [6]: higher cell permeability
cell permeability compared with TAT [2]: higher cell permeability
cell permeability compared with TAT [4]: higher cell permeability

YLRRKLRRRAGEPR [C230]
Score [1]: 305
Score/TAT [1]: 0.588
cell permeability compared with TAT [7]: higher cell permeability
cell permeability compared with TAT [2]: higher cell permeability
